Values after ≈ are worked out from the molar mass of the structure shown. Like-named read-outs stand apart in the source and are kept apart here.

Data set [1] has as its system L. (L.) major promastigotes. Put plainly: In vitro antileishmanial activity (CellTiter-Glo luminescent cell viability). To be noted: for IC50: Leishmania major; for Selectivity index (SI): SI = CC50 (L929)/IC50 (L. (L.) major promastigotes). Details: key to Activity class against promastigotes based on IC50: very active (IC50 < 10 μg/mL); active (IC50 > 10 < 50 μg/mL); moderately active (IC50 > 50 < 100 μg/mL); inactive (IC50 > 100 μg/mL). It is filed as cell-based, Leishmania (L.) major. The method, then:
Protozoan isolates were obtained from the Parasite Bank at the Department of Parasitology, Faculty of Medicine, Manisa Celal Bayar University. The subsequent procedure for acquiring promastigotes was as follows: the major L. (L.) isolate was classified as MHOM/TR/2014/CBL-LM. It was preserved in liquid nitrogen and defrosted by placing it in a water bath at 37 °C for two minutes after its removal from preservation. Subsequent to melting, the NNN medium was inoculated and incubated in an incubator at 25 °C. The reproductive condition of the protozoan was assessed by making coverslips and slides twice daily. Following parasite replication, the cells were transferred from the NNN medium to the RPMI-1640 medium (Gibco, Paisley, Scotland, UK) to facilitate further proliferation. Before application, 10% fetal calf serum, 1% penicillin/streptomycin, and 1% gentamicin were added to a widely available commercial medium. Distribution was conducted using 5 milliliters per 25 mL flask, and cultivation was performed by adding 50 μL of the cultured promastigotes. Flasks designated for cultivation were incubated in a 25 °C incubator. Parasite reproduction was observed, and the medium was supplemented every 2–3 days. Subsequently, the number of promastigotes was quantified using a Thoma chamber, yielding a concentration of 10^6 promastigotes/mL, and a suspension comprising promastigotes was formulated.
The synthesized compounds were dissolved in DMSO to a final concentration of no more than 0.5% [51]. Based on preliminary studies, the K1 compound was prepared at concentrations ranging from 0.23 µg/mL to 30 µg/mL, while the K2, K3, and K4 compounds were prepared at concentrations ranging from 1.95 µg/mL to 250 µg/mL.
The assay was conducted using 96-well flat-bottom microtiter plates, with three replicate wells per experimental group. The groups included a blank control, parasite control (no treatment), drug control (Amphotericin B), and test groups for compounds K1, K2, K3, and K4. Each well was filled with 100 µL of RPMI-1640 medium supplemented with 10% fetal calf serum, 1% penicillin/streptomycin, and 1% gentamicin. For the four test compounds and Amphotericin B, 100 µL of the respective solution was added to the first well of each group. The contents were mixed thoroughly using an automated dispensing pipette, followed by serial dilutions down the respective wells. Promastigote suspensions, previously counted using a Thoma counting chamber, were added at 100 µL per well to all wells except those designated as blanks. No parasites were added to the blank wells. The plates were then covered with lids, sealed with parafilm, and incubated at 25 °C. Following incubation, cell viability was assessed using the CellTiter-Glo® Luminescent Cell Viability Assay Kit (Promega, Madison, WI, USA). This experimental procedure was repeated in three independent experiments conducted at different time points.
It is calculated as the ratio of the cytotoxic concentration (CC50) required to cause 50% cell death in mammalian cells to the inhibitory concentration (IC50) required to kill 50% of the parasites. The selectivity index values of benzimidazole derivatives for L. (L.) major promastigotes were determined using the following equation: SI = CC50/IC50 [55].

Data set [2] is described as follows: Cytotoxicity test (MTT). It is filed as cell-based, mouse. To be noted: L929 mouse fibroblast cells, 48 h, MTT. The method, then: (§1) The cytotoxic effects of the benzimidazole derivatives and AmpB were determined using the L929 cell line (American Type Culture Collection, Manassas, VA, USA). In total, 100 µL of the cell suspension (10^5/mL) was added to each well comprising sterile, flat-bottomed 96-well microplates. The microplates were then incubated at 37 °C in a 5% CO2 incubator for 24 h. Cytotoxic activity was evaluated using the same concentrations applied in the antileishmanial activity assessment. For compound K1, serial dilutions were prepared in the range of 0.23–30 µg/mL, and for the other compounds, in the range of 1.95–250 µg/mL. These dilutions were added to a second microplate, and 100 µL from each well was transferred to the first plate. The plates were then incubated under the same conditions for an additional 48 h.
(§2) Cell viability was determined using the 3-(4.5-dimethylthiazol-2-yl)-2.5-diphenyltetrazolium bromide) (Sigma, Kawasaki, Japan) method. After the completion of the incubation period, all media from the microplates, both containing and lacking the active ingredient, were discarded. Subsequently, 100 μL of MTT suspension was added to each well, and the plates were incubated in a CO2 incubator at 37 °C for four hours. At the end of the incubation period, all wells in the microplates were emptied, and 100 μL of pure DMSO (to dissolve the formazan crystals) was pipetted into each well and incubated under the same conditions for 30 min. Absorbance was measured at 570 nm using a spectrophotometer (Biotek 800TS, Winooski, VT, USA). CC50 values were determined using GraphPad Prism version 8.4.2. All experiments were performed in triplicate, with three independent trials and two replicates per trial.

The test system of data set [3] is L929 cell line. The data set is described as follows: Cytotoxicity test (MTT). It is filed as cell-based, mouse. The conditions noted are these: L929 cells. The method, then: as §1, §2
For data set [4], the system named is L. (L.) major promastigotes. The data set is described as follows: Morphological alterations of promastigotes by Giemsa staining. The format is cell-based, Leishmania (L.) major. The conditions noted are these: serial dilutions 0.23 µg/mL to 30 µg/mL, 48 h. The method, then:
The morphological alterations caused by compound K1 at various concentrations in L. (L.) major promastigotes were assessed at the 48 h mark utilizing Giemsa staining (Figure 3).
Figure 3 Control (a) and serial dilutions of the K1 compound (ranging from 0.23 µg/mL to 30 µg/mL) (b–l) in wells containing L. (L.) major promastigotes (100× magnification).

[5] abbreviates: L. (L.) major promastigotes (MHOM/TR/2014/CBL-LM), 25 °C, CellTiter-Glo, read-out: IC50 (antileishmanial activity).

With `C[C@@H]1[C@H](O)[C@@H](C)/C=C/C=C/C=C/C=C/C=C/C=C/C=C/[C@H](O[C@@H]2O[C@H](C)[C@@H](O)[C@H](N)[C@@H]2O)C[C@@H]2O[C@](O)(C[C@@H](O)C[C@@H](O)[C@H](O)CC[C@@H](O)C[C@@H](O)CC(=O)O[C@H]1C)C[C@H](O)[C@H]2C(=O)O` [AmpB, Amphotericin B, reference compound], in data set [1] (setting [5]), the IC50 was determined as 0.274 µg/mL (≈ 0.297 µM).

Consider `Cc1nc(-c2ccccc2)cn2c1nc1ccccc12` [K3], for which the “Activity class against promastigotes based on IC50” value in data set [1] (L. (L.) major promastigotes) was “active”. In addition, the IC50 in data set [1] (setting [5]) was 45.1 µg/mL (≈ 174 µM). In data set [1], the “Selectivity index (SI)” value was 0.012. Moreover, the 50% cytotoxic concentration (CC50) at 48 h in data set [2] was 0.56 µg/mL (≈ 2.16 µM).

Consider `Cc1nc(-c2cccc(Cl)c2)cn2c1nc1ccccc12` [K2], for which the IC50 in data set [1] (setting [5]) came to 8.89 µg/mL (≈ 30.3 µM). For the same compound, in data set [1], the “Selectivity index (SI)” value is on record as 7.08. In data set [2], this compound came in with a CC50 at 48 h of 63 µg/mL (≈ 214 µM).

On to `Cc1nc(-c2ccc(Cl)cc2)cn2c1nc1ccccc12` [K4], for which the IC50 in data set [1] (setting [5]) was 69.2 µg/mL (≈ 236 µM); in data set [1] (L. (L.) major promastigotes, read-out: Activity class against promastigotes based on IC50), 50 to 100 µg/mL (≈ 170 to 340 µM). Further, the “Selectivity index (SI)” value in data set [1] stood at 4.22. The compound further registered a CC50 at 48 h in data set [2] of 292 µg/mL (≈ 994 µM).

Consider `CC(=O)c1nc2ccccc2n1CC(=O)c1cccc(Cl)c1` [K1], for which, in data set [1] (setting [5]), the IC50 amounted to 0.679 µg/mL (≈ 2.17 µM). Moreover, the “Selectivity index (SI)” value in data set [1] stood at 368.25. This compound displayed a CC50 at 48 h in data set [2] of 250 µg/mL (≈ 799 µM). Also, the “Cytotoxic effect on L929 cells” value in data set [3] is “not observed”. Further, the “Morphological alterations in promastigotes” value in data set [4] was “decreases in the number of promastigotes and morphological structural disruptions were observed”.

Values taken from article PMC12197429, “Evaluation of the Antileishmanial Activity of Some Benzimidazole Derivatives Using In Vitro and In Silico Techniques” (Veterinary Sciences, 2025).
